Measured values: US6288073A, “Acronycine derivatives, preparation method and pharmaceutical compositions” (Adir et Compagnie, priority 1997, dated 2001)

Legend:
[1] = tested on: Human Colon Carcinoma HT29; assay: Anti-tumour activity on human colon carcinoma HT29 grafted onto nude mice; format: in vivo, nude mice (human HT29 xenograft)
Text: Line HT29 was supplied by the ATCC (American Type Culture Collection, Rockville, USA). The tumour cells were inoculated into female nude Swiss mice (10^7 cells per animal) by the subcutaneous route. The tumours were then removed and cut into fragments, which were grafted onto nude mice by the subcutaneous route. Once the tumour volume had reached from 50 to 100 mm^3, the mice were distributed into experimental groups containing 8 animals (control group) or 6 animals (treated groups) (day 0). The products were administered by the i.v. route once per week for 3 weeks. The tumours were measured twice per week and the tumour volumes were calculated according to the formula: volume (mm^3)=length (mm)×width^2 […]/2 [formula]
with V0 and Vt being the initial volume and the volume at measurement time t, respectively.

[2] = tested on: Murine leukaemia L1210; assay: Cytotoxicity for L1210 cells in culture (Microculture Tetrazolium Assay); format: cell-based; details: Mus musculus, exposure 48 hours (4 periods of cell doubling), viable cells by Microculture Tetrazolium Assay
Experimental: Murine leukaemia L1210 was used in vitro. The cells are cultured in RPMI 1640 complete culture medium containing 10% foetal calf serum, 2 mM giutamine, 50 units/ml of penicillin, 50 μg/ml of streptomycin and 10 mM Hepes, pH: 7.4. The cells are distributed on microplates and exposed to the cytotoxic compounds for 4 periods of cell doubling, i.e. 48 hours. The number of viable cells is then quantified by means of a colorimetric assay, the Microculture Tetrazolium Assay (J. Carmichael et al., Cancer Res., 47, 936-942, (1987)). The results are expressed as IC50, the concentration of cytotoxic agent which inhibits the proliferation of the treated cells by 50%.

[3] = tested on: Line P 388 (murine leukaemia); assay: Anti-tumour activity on line P 388 in vivo; set-up: species or system mice; details: for % T/C: P 388 inoculated i.p. into female B6D2F1 mice, product i.p. on day 1 at the optimum dose; for Anti-tumour activity on line P 388 (in words): P 388 model in B6D2F1 mice, i.p., d1
Experimental: Line P 388 (murine leukaemia) was supplied by the National Cancer Institute (Frederick, USA). The tumour cells (10^6 cells) were inoculated on day 0 into the peritoneal cavity of female B6D2F1 mice (Iffa Credo, France). Six mice weighing from 18 to 20 g were used for each experimental group. The products were administered by the intraperitoneal route on day 1.
The anti-tumour activity is expressed as % TIC: [formula]

| SMILES | Anti-tumour activity on line HT29 (in words) ([1]; HT29 model in nude mice, i.v.) | % T/C on day 32 ([1]; HT29 s.c. grafts in nude Swiss mice, i.v. d 0, 7, 14 at optimum dose, tumour volume) [%] | inhibition of growth of the HT29 tumour ([1]; on day 32, HT29 s.c. grafts in nude mice, i.v. once per week for 3 weeks) [%] | IC50 [2] [µM] | % T/C [3] [%] | Anti-tumour activity on line P 388 (in words) [3] |
| --- | --- | --- | --- | --- | --- | --- |
| COc1cc2c(c3c1c(=O)c1cc4ccccc4cc1n3C)[C@@H](OC(C)=O)[C@@H](OC(C)=O)C(C)(C)O2 (relative stereo) [Example 5, (±)-cis-1,2-Diacetoxy-4-methoxy-3,3,14-trimethyl-2,3,7,14-tetrahydro-1H-benzo[b]pyrano[3,2-h]acridin-7-one] | very active | 17 | 83 |  |  |  |
| COc1cc2c(c3c1c(=O)c1cc4ccccc4cc1n3C)[C@H]1OC(=O)O[C@H]1C(C)(C)O2 (relative stereo) [Example 7, cis-7-Methoxy-4,4,15-trimethyl-3a,8,15,15c-tetrahydro-4H-benzo[b][1,3]dioxolo[4',5':4,5]pyrano[3,2-h]acridine-2,8-dione] |  |  |  | 0.023 | 327 | very active |
| COc1cc2c(c3c1c(=O)c1ccccc1n3C)C=CC(C)(C)O2 [Acronycine] |  |  |  | 27 | 125 | only marginally active |
